Results taken from patent US4279994A (priority 1979, dated 1981).
Where a name gives a salt, the structure may show the parent alone. Read-outs that look alike come from different tables or passages of the source.

Legend:
Type in all cases: biochemical
[1] = target: butyryl cholinesterase (Homo sapiens, UniProt P06276)
[2] = target: T1, human serum containing naturally occurring pseudocholinesterases (Homo sapiens, UniProt P06276)
T1 construct: human serum containing naturally occurring pseudocholinesterases; from tissue; host or cells: human serum (Serum A, Serum B)
T1 sequence (P06276 29-602): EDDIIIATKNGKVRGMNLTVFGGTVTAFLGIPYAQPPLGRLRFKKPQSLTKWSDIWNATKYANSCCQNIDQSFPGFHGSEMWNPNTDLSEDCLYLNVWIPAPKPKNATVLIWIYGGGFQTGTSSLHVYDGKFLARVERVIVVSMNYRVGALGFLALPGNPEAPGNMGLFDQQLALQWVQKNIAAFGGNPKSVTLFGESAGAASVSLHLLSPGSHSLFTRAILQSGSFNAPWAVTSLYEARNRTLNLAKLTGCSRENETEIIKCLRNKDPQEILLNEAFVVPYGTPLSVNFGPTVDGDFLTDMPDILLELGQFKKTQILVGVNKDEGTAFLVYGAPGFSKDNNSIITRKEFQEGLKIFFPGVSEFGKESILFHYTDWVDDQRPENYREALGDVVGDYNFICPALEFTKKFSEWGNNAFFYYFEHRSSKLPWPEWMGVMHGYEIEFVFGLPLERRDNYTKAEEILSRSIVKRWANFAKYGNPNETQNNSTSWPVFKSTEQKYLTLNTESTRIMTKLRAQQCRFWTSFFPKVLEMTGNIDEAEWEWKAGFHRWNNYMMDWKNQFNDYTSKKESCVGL

[3] = target: acetyl cholinesterase (Homo sapiens, UniProt P22303)
Sequence of acetyl cholinesterase (P22303 32-614): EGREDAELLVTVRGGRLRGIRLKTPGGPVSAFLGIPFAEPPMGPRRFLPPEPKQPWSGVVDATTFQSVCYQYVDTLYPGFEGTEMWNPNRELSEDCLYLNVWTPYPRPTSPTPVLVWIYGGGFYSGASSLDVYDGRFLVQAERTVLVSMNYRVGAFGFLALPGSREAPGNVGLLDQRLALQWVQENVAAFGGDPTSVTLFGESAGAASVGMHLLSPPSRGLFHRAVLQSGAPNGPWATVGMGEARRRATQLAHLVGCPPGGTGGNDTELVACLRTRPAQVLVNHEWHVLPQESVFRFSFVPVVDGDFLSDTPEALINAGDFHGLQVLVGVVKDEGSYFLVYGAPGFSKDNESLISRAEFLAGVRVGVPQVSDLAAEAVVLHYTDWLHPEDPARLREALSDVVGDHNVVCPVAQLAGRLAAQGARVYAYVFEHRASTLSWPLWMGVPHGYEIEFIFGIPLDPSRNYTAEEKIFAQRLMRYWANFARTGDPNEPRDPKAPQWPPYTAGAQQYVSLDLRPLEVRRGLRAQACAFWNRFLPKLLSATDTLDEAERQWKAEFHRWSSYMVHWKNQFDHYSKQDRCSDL

[4] = test system: lipase; assay: Effect on lipase under the test conditions
[5] = target: T2, pseudocholinesterase (Homo sapiens, UniProt P06276); assay: Eserine salicylate added to fresh human serum specimens, absorbance change between 10 and 30 minutes incubation (Example 4); details: for Absorbance change: 10 to 30 minutes incubation
T2 construct: hydrolysis of S-acyl substrate (BALB) with chromogenic sulfhydryl reagent
T2 sequence (P06276 29-602): as the sequence (P06276 29-602) above

[6] = Reagent without lipase and without eserine salt, used to assay cholinesterase solutions (Example 4); details: 1.17 units of acetyl cholinesterase or 0.36 units of butyryl cholinesterase; no lipase and no eserine salt
Experimental: The four-reagent kit of Example 1 is utilized as follows, using duplicate specimen vials labelled "Patient-Blank", "Patient", "Blank 10 Minutes" and "Blank 30 Minutes", and the following procedure.
The activity of serum lipase is proportional to the absorbance at 412 nanometers, and is calculated as follows:
Lipase activity per 20 minutes= Absorbance [patient vial-Blank vial] (30 minutes) -Absorbance [patient vial-Blank vial] (10 minutes)
A reagent composition is formulated to contain the following: […]
Final pH about 8.8. Using a procedure similar to that of Example 2, the reagent was used to assay solutions containing 1.17 units of acetyl cholinesterase (a true cholinesterase) or 0.36 units of butyryl cholinesterase (a pseudocholinesterase). Acetyl cholinesterase produced an absorbance change of 0.011 absorbance units and butyryl cholinesterase produced a change of 0.421 absorbance units.

Sequence of butyryl cholinesterase (P06276 29-602): as above

Q: What does the source list for CNC(=O)Oc1ccc2c(c1)[C@]1(C)CCN(C)[C@@H]1N2C [Eserine Salicylate, Eserine salicylate]?
A: Activity, Butyryl Cholinesterase [1]: 0.182 ΔAbsorbance per 20 minutes incubation; inhibition of BALB hydrolysis by pseudocholinesterase (in words) [1]: significant inhibition; Activity, Serum A [2]: 0.078 ΔAbsorbance per 20 minutes incubation; Activity, Serum B [2]: 0.092 ΔAbsorbance per 20 minutes incubation; Activity, Acetyl Cholinesterase [3]: 0.027 ΔAbsorbance per 20 minutes incubation; inhibition of lipase [4]: does not inhibit lipase; specificity for serum pseudocholinesterase [5]: highly specific for serum pseudocholinesterase; improvement with increasing inhibitor concentration ([5]; concentrations increasing from 0.02 to 0.05 millimolar): little or no improvement; inhibition of pseudocholinesterase (in words) ([5]; fresh human serum, Example 4): inhibition of pseudocholinesterase; Absorbance change ([5]; fresh human serum, 5 microliters (0.005 millimolar) of 1 millimolar eserine salicylate added): 0.501; Absorbance change ([5]; fresh human serum, 10 microliters of 1 millimolar eserine salicylate added): 0.495; Absorbance change ([5]; fresh human serum, 20 microliters of 1 millimolar eserine salicylate added): 0.475; Absorbance change ([5]; fresh human serum, 30 microliters of 1 millimolar eserine salicylate added): 0.490; Absorbance change ([5]; fresh human serum, 40 microliters of 1 millimolar eserine salicylate added): 0.496; Absorbance change ([5]; fresh human serum, 50 microliters of 1 millimolar eserine salicylate added): 0.492

Q: With CN(C)C(=O)Oc1cccc([N+](C)(C)C)c1 [Neostigmine Methyl Sulfate, neostigmine methylsulfate] as the compound, how does the “Activity, Butyryl Cholinesterase” value [1] read?
A: Its value is 0.187 ΔAbsorbance per 20 minutes incubation.

Q: What about the “inhibition of BALB hydrolysis by pseudocholinesterase (in words)” value [1] of the same compound?
A: The value was “significant inhibition”.

Q: What about the “Activity, Serum A” value [2] of the same compound?
A: Its value is 0.098 ΔAbsorbance per 20 minutes incubation.

Q: And the “Activity, Serum B” value [2]?
A: Its value is 0.081 ΔAbsorbance per 20 minutes incubation.

Q: And the “Activity, Acetyl Cholinesterase” value [3]?
A: Its value is 0.025 ΔAbsorbance per 20 minutes incubation.

Q: What does the source list for O=S(=O)(F)Cc1ccccc1 [PMSF, phenyl methyl sulfonyl fluoride]?
A: Activity, Butyryl Cholinesterase ([1]; 50 microliters of butyryl cholinesterase, 7.2 units per ml, Eserine Salicylate 0.037 μm, Neostigmine Methyl Sulfate 0.037 mM, PMSF 0.37 mM): 0.338 ΔAbsorbance per 20 minutes incubation; Activity, Serum A ([2]; 50 microliters of human Serum A, Eserine Salicylate 0.037 μm, Neostigmine Methyl Sulfate 0.037 mM, PMSF 0.37 mM): 0.487 ΔAbsorbance per 20 minutes incubation; Activity, Serum B ([2]; 50 microliters of human Serum B, Eserine Salicylate 0.037 μm, Neostigmine Methyl Sulfate 0.037 mM, PMSF 0.37 mM): 0.383 ΔAbsorbance per 20 minutes incubation; effect in inhibiting the interfering hydrolysis of the S-acyl compound (in words) ([2]; serum samples, without pseudocholinesterase inhibitor): little or no effect; Activity, Acetyl Cholinesterase ([3]; 50 microliters of acetyl cholinesterase, 10.4 units per ml, Neostigmine Methyl Sulfate 0.037 mM, PMSF 0.37 mM): 0.021 ΔAbsorbance per 20 minutes incubation

Q: Which Absorbance change [6] does the source give for Acetyl cholinesterase here?
A: Its Absorbance change is 0.011 absorbance units.
